For one compound, EC50 results are on record in publication PMC2629381 (Biochemistry, 2008).

The experiment addresses GluR4 (GluR4flip) (Rattus norvegicus, UniProt P19493, L505Y). Kind of experiment: whole-cell voltage-clamp dose-response. It counts as cell-based.

GluR4 (GluR4flip), sequence (P19493 21-902 isoform P19493-2 L505Y): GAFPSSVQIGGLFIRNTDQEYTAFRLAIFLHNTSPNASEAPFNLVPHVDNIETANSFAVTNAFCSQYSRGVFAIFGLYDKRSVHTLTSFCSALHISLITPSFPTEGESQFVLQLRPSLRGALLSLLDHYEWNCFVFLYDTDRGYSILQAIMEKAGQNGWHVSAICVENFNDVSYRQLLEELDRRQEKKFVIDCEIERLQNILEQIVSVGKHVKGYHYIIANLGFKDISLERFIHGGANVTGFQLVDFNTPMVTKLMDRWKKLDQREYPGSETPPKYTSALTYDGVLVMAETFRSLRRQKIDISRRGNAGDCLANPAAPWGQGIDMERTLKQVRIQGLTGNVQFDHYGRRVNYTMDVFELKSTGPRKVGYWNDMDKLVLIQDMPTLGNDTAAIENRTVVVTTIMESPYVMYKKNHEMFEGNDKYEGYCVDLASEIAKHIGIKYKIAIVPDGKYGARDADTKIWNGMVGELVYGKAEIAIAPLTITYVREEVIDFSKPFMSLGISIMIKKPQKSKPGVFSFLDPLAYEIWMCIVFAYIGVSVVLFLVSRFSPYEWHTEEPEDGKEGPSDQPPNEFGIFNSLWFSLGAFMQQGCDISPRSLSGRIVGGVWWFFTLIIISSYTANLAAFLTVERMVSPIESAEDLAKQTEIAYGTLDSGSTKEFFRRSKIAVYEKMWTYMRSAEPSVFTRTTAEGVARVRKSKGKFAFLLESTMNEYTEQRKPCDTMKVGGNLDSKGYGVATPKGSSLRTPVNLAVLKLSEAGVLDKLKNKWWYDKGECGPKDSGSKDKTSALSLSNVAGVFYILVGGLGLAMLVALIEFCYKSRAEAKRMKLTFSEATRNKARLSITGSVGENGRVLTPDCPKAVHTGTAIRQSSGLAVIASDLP

Broadly, the EC50 is the concentration needed to bring the measured effect to its halfway point. Low values mean greater potency, high ones weaker potency. Compound `C=C(C)[C@H]1CN[C@H](C(=O)O)[C@H]1CC(=O)O` [Kainate, 2-carboxy-3-carboxymethyl-4-isopropenyl-pyrrolidine] gave an EC50 of 92 ± 14 µM.
